Reference: PMC6366416, “Synthesis and in vitro anticancer activity of certain novel 1-(2-methyl-6-arylpyridin-3-yl)-3-phenylureas as apoptosis-inducing agents” (Journal of Enzyme Inhibition and Medicinal Chemistry, 2019)

Columns and labels:
Test in all cases: NCI one-dose SRB growth inhibition
Assay type in all cases: cell-based
[1] = system: 786-0; settings: Homo sapiens, Renal Cancer, 48 h, read-out: GI% 786-0
Protocol: (§1) The antitumor assay was performed according to the protocol of the Drug Evaluation Branch, NCI, Bethesda[24–26]. A 48 h drug exposure protocol was adopted, and sulforhodamine B (SRB) assay[27] was utilized to assess the cell growth and viability, as reported earlier[17]^,[28].
(§2) The structures of all the newly synthesized pyridines 5a–l were submitted to the National Cancer Institute (NCI) Developmental Therapeutic Program (www.dtp.nci.nih.gov). […] Nine different types of cancer were tested in this assay: colon, ovarian, prostate, leukemia, melanoma, CNS, renal, breast and lung cancers. A 48 h drug exposure protocol was adopted, and sulforhodamine B (SRB) assay[27] was utilized to assess the cell growth and viability.

[2] = system: CCRF-CEM; settings: Homo sapiens, Leukemia, 48 h, read-out: GI% CCRF-CEM
Protocol: as §1, §2

[3] = system: COLO 205; settings: Homo sapiens, Colon Cancer, 48 h, read-out: GI% COLO 205
Protocol: as §1, §2

[4] = system: DU-145; settings: Homo sapiens, Prostate, 48 h, read-out: GI% DU-145
Protocol: as §1, §2

[5] = system: HL-60(TB); settings: Homo sapiens, Leukemia, 48 h, read-out: GI% HL-60(TB)
Protocol: as §1, §2

[6] = system: HOP-62; settings: Homo sapiens, Non-Small Cell Lung Cancer, 48 h, read-out: GI% HOP-62
Protocol: as §1, §2

[7] = system: HOP-92; settings: Homo sapiens, Non-Small Cell Lung Cancer, 48 h, read-out: GI% HOP-92
Protocol: as §1, §2

[8] = system: HS 578T; settings: Homo sapiens, Breast Cancer, 48 h, read-out: GI% HS 578T
Protocol: as §1, §2

[9] = system: IGROV1; settings: Homo sapiens, IGROV-1, Ovarian Cancer, 48 h, read-out: GI% IGROV1
Protocol: as §1, §2

[10] = system: KM12; settings: Homo sapiens, Colon Cancer, 48 h, read-out: GI% KM12
Protocol: as §1, §2

[11] = system: M14; settings: Homo sapiens, M14, 48 h, Melanoma, read-out: GI% M14
Protocol: as §1, §2

[12] = system: MALME-3M; settings: Homo sapiens, Melanoma, 48 h, read-out: GI% MALME-3M
Protocol: as §1, §2

[13] = system: MCF7; settings: Homo sapiens, Breast Cancer, 48 h, read-out: GI% MCF7
Protocol: as §1, §2

[14] = system: MDA-MB-435; settings: Homo sapiens, Melanoma, 48 h, read-out: GI% MDA-MB-435
Protocol: as §1, §2

[15] = system: MDA-MB-468; settings: Homo sapiens, Breast Cancer, 48 h, read-out: GI% MDA-MB-468
Protocol: as §1, §2

[16] = system: MOLT-4; settings: Homo sapiens, Leukemia, 48 h, read-out: GI% MOLT-4
Protocol: as §1, §2

[17] = system: NCI-H460; settings: Homo sapiens, Non-Small Cell Lung Cancer, 48 h, read-out: GI% NCI-H460
Protocol: as §1, §2

[18] = system: OVCAR-3; settings: Homo sapiens, OVCAR-3, 48 h, Ovarian Cancer, read-out: GI% OVCAR-3
Protocol: as §1, §2

[19] = system: OVCAR-4; settings: Homo sapiens, Ovarian Cancer, 48 h, read-out: GI% OVCAR-4
Protocol: as §1, §2

[20] = system: OVCAR-5; settings: Homo sapiens, Ovarian Cancer, 48 h, read-out: GI% OVCAR-5
Protocol: as §1, §2

[21] = system: PC-3; settings: Homo sapiens, PC-3, 48 h, Prostate, read-out: GI% PC-3
Protocol: as §1, §2

[22] = system: RPMI-8226; settings: Homo sapiens, RPMI-8226, 48 h, Leukemia, read-out: GI% RPMI-8226
Protocol: as §1, §2

[23] = system: RXF 393; settings: Homo sapiens, Renal Cancer, 48 h, read-out: GI% RXF 393
Protocol: as §1, §2

[24] = system: SF-268; settings: Homo sapiens, CNS Cancer, 48 h, read-out: GI% SF-268
Protocol: as §1, §2

[25] = system: SF-295; settings: Homo sapiens, CNS Cancer, 48 h, read-out: GI% SF-295
Protocol: as §1, §2

[26] = system: SK-MEL-28; settings: Homo sapiens, Melanoma, 48 h, read-out: GI% SK-MEL-28
Protocol: as §1, §2

[27] = system: SK-MEL-2; settings: Homo sapiens, Melanoma, 48 h, read-out: GI% SK-MEL-2
Protocol: as §1, §2

[28] = system: SK-OV-3; settings: Homo sapiens, Ovarian Cancer, 48 h, read-out: GI% SK-OV-3
Protocol: as §1, §2

[29] = system: SW-620; settings: Homo sapiens, Colon Cancer, 48 h, read-out: GI% SW-620
Protocol: as §1, §2

[30] = system: T-47D; settings: Homo sapiens, T47D, 48 h, Breast Cancer, read-out: GI% T-47D
Protocol: as §1, §2

[31] = system: TK-10; settings: Homo sapiens, Renal Cancer, 48 h, read-out: GI% TK-10
Protocol: as §1, §2

[32] = system: UACC-257; settings: Homo sapiens, UACC-257, read-out: GI% UACC-257, Melanoma, 48 h
Protocol: as §1, §2

[33] = system: UO-31; settings: Homo sapiens, Renal Cancer, 48 h, read-out: GI% UO-31
Protocol: as §1, §2

| SMILES | inhibition at 10 µM [1] [%] | inhibition at 10 µM [2] [%] | inhibition at 10 µM [3] [%] | inhibition at 10 µM [4] [%] | inhibition at 10 µM [5] [%] | inhibition at 10 µM [6] [%] | inhibition at 10 µM [7] [%] | inhibition at 10 µM [8] [%] | inhibition at 10 µM [9] [%] | inhibition at 10 µM [10] [%] | inhibition at 10 µM [11] [%] | inhibition at 10 µM [12] [%] | inhibition at 10 µM [13] [%] | inhibition at 10 µM [14] [%] | inhibition at 10 µM [15] [%] | inhibition at 10 µM [16] [%] | inhibition at 10 µM [17] [%] | inhibition at 10 µM [18] [%] | inhibition at 10 µM [19] [%] | inhibition at 10 µM [20] [%] | also measured |
| --- | --- | --- | --- | --- | --- | --- | --- | --- | --- | --- | --- | --- | --- | --- | --- | --- | --- | --- | --- | --- | --- |
| Cc1nc(-c2ccc(Cl)cc2)ccc1NC(=O)Nc1cccc(C(F)(F)F)c1 [Compound 5e, 1-(6-(4-Chlorophenyl)-2-methylpyridin-3-yl)-3-(3-(trifluoromethyl)phenyl)urea] | < 10 | 22 | < 10 | < 10 | 21 | < 10 | < 10 | < 10 | < 10 | < 10 | < 10 | < 10 | 20 | < 10 | < 10 | 12 | 34 | < 10 | < 10 | < 10 | inhibition at 10 µM [21]: 20%; inhibition at 10 µM [22]: 15%; inhibition at 10 µM [23]: < 10%; inhibition at 10 µM [24]: < 10%; inhibition at 10 µM [25]: < 10%; inhibition at 10 µM [26]: < 10%; inhibition at 10 µM [27]: < 10%; inhibition at 10 µM [28]: < 10%; inhibition at 10 µM [29]: 11%; inhibition at 10 µM [30]: 13%; inhibition at 10 µM [31]: < 10%; inhibition at 10 µM [32]: < 10%; inhibition at 10 µM [33]: < 10% |
| Cc1nc(-c2cccs2)ccc1NC(=O)Nc1ccc(F)cc1 [Compound 5h, 1-(4-Fluorophenyl)-3-(2-methyl-6-(thiophen-2-yl)pyridin-3-yl)urea] | < 10 | 10 | < 10 | < 10 | 15 | < 10 | < 10 | < 10 | < 10 | 18 | < 10 | < 10 | 22 | < 10 | 16 | 29 | < 10 | < 10 | < 10 | < 10 | inhibition at 10 µM [21]: 19%; inhibition at 10 µM [22]: 24%; inhibition at 10 µM [23]: < 10%; inhibition at 10 µM [24]: < 10%; inhibition at 10 µM [25]: < 10%; inhibition at 10 µM [26]: < 10%; inhibition at 10 µM [27]: 24%; inhibition at 10 µM [28]: < 10%; inhibition at 10 µM [29]: < 10%; inhibition at 10 µM [30]: 15%; inhibition at 10 µM [31]: < 10%; inhibition at 10 µM [32]: 20%; inhibition at 10 µM [33]: 13% |
| Cc1nc(-c2cccs2)ccc1NC(=O)Nc1ccc(Cl)cc1 [Compound 5i, 1-(4-Chlorophenyl)-3-(2-methyl-6-(thiophen-2-yl)pyridin-3-yl)urea] | < 10 | < 10 | < 10 | < 10 | 20 | < 10 | < 10 | < 10 | < 10 | < 10 | < 10 | < 10 | 12 | < 10 | 17 | 15 | < 10 | < 10 | < 10 | < 10 | inhibition at 10 µM [21]: < 10%; inhibition at 10 µM [22]: < 10%; inhibition at 10 µM [23]: < 10%; inhibition at 10 µM [24]: < 10%; inhibition at 10 µM [25]: < 10%; inhibition at 10 µM [26]: < 10%; inhibition at 10 µM [27]: < 10%; inhibition at 10 µM [28]: < 10%; inhibition at 10 µM [29]: < 10%; inhibition at 10 µM [30]: 13%; inhibition at 10 µM [31]: < 10%; inhibition at 10 µM [32]: 23%; inhibition at 10 µM [33]: < 10% |
| Cc1nc(-c2ccc(F)cc2)ccc1NC(=O)Nc1cccc(C(F)(F)F)c1 [Compound 5a, 1-(6-(4-Fluorophenyl)-2-methylpyridin-3-yl)-3-(3-(trifluoromethyl)phenyl)urea] | < 10 | 25 | < 10 | 11 | 11 | 31 | < 10 | < 10 | < 10 | 37 | > 40 | < 10 | 30 | 19 | 32 | 33 | 34 | > 40 | 30 | < 10 | inhibition at 10 µM [21]: > 40%; inhibition at 10 µM [22]: > 40%; inhibition at 10 µM [23]: < 10%; inhibition at 10 µM [24]: < 10%; inhibition at 10 µM [25]: 17%; inhibition at 10 µM [26]: 20%; inhibition at 10 µM [27]: < 10%; inhibition at 10 µM [28]: 13%; inhibition at 10 µM [29]: < 10%; inhibition at 10 µM [30]: > 40%; inhibition at 10 µM [31]: < 10%; inhibition at 10 µM [32]: 38%; inhibition at 10 µM [33]: 15% |
| CCOC(=O)c1ccc(NC(=O)Nc2ccc(-c3cccs3)nc2C)cc1 [Compound 5j, Ethyl 4-(3-(2-methyl-6-(thiophen-2-yl)pyridin-3-yl)ureido)benzoate] | 12 | 50 | < 10 | < 10 | 10 | < 10 | < 10 | < 10 | < 10 | 18 | 38 | < 10 | 21 | < 10 | 13 | 44 | 43 | < 10 | < 10 | < 10 | inhibition at 10 µM [21]: 52%; inhibition at 10 µM [22]: 56%; inhibition at 10 µM [23]: < 10%; inhibition at 10 µM [24]: < 10%; inhibition at 10 µM [25]: < 10%; inhibition at 10 µM [26]: < 10%; inhibition at 10 µM [27]: 11%; inhibition at 10 µM [28]: < 10%; inhibition at 10 µM [29]: < 10%; inhibition at 10 µM [30]: < 10%; inhibition at 10 µM [31]: < 10%; inhibition at 10 µM [32]: < 10%; inhibition at 10 µM [33]: < 10% |
